Results on 46 compounds are retold here after patent US8975235B2, “Lysophosphatidic acid receptor antagonists” (InterMune, Inc., priority 2011, dated 2015).

By IC50 is commonly meant the concentration that inhibits the measured activity by half. Broadly, the EC50 is the midpoint of the concentration-response curve. Read a high EC50 as a need for much substance.

SMILES strings stand for the structures.

Test [1] concerns the target T1, Human LPA1 (Homo sapiens, UniProt Q92633). Kind of test: LPA1 calcium flux assay. The class given is cell-based. On the set-up: the full-length cDNA for human LPA1 is obtained by PCR of the reverse transcription reaction; expressed in transfected cells; host or cells: CHO. The conditions noted are these: human LPA1 expressing CHO cells; stimulated with 10 nM LPA; read-out: Ca Flux LPA1 IC50. How it is done:
Establishment of a CHO Cell Line Stably Expressing Human LPA1
A 1.1 kb cDNA encoding the human LPA1 receptor is cloned from human lung. Human lung RNA (Clontech Laboratories, Inc. USA) is reverse transcribed using the RETROscript kit (Ambion, Inc.) and the full-length cDNA for human LPA1 is obtained by PCR of the reverse transcription reaction. The nucleotide sequence of the cloned human LPA1 is determined by sequencing and is confirmed to be identical to the published human LPA1 sequence (An et al. Biochem. Biophys. Res. Commun. 231:619 (1997). The cDNA is cloned into the pcDNA5 pcDNA5/FRT expression plasmid and is transfected in CHO cells using lipofectamine 2000 (Invitrogen Corp., USA). Clones stably expressing human LPA1 are selected using hygromycin and identified as cells that show Ca-influx in response to LPA.
LPA1 and LPA3 Calcium Flux Assays
Human LPA1 or LPA3 expressing CHO cells were seeded at 20,000-45,000 cells per well in a 96-well poly-D-lysine coated plate one or two days before the assay. Prior to the assay, the cells were washed once with PBS and then cultured in serum-free media overnight. On the day of the assay, a calcium indicator dye (Calcium 4, Molecular Devices) in assay buffer (HBSS with Ca^2+ and Mg^2+ and containing 20 mM Hepes and 0.3% fatty-acid free human serum albumin) was added to each well and incubation continued for 1 hour at 37° C. 10 μl of test compounds in 2.5% DMSO were added to the cells and incubation continued at room temperature for 30 minutes. Cells were then stimulated by the addition of 10 nM LPA and intracellular Ca^2+ measured using the Flexstation 3 (Molecular Devices). IC50s were determined using Graphpad prism analysis of drug titration curves.
For orientation: Calcium flux is commonly read through the fluorescence of an indicator in the cells.

Test [2] has as its target T1, Human LPA1. Kind of test: Beta-Arrestin based assay for human LPA1R antagonists (PathHunter). As to conditions: CHO cells stably expressing ProLink tagged human LPA1R; agonist LPA 0.5 micromolar. Format: cell-based. The arrangement: host or cells: CHO. The essentials: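 CHO cells stably expressing ProLink-tagged human LPA1R with β-arrestin–EA fusion, assayed by β-galactosidase complementation. Antagonists tested against 0.5 micromolar LPA ([…]), in quadruplicate. End-point luminescence fitted to a 4-parameter logistic to give IC50.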

T1 sequence (Q92633 whole entry): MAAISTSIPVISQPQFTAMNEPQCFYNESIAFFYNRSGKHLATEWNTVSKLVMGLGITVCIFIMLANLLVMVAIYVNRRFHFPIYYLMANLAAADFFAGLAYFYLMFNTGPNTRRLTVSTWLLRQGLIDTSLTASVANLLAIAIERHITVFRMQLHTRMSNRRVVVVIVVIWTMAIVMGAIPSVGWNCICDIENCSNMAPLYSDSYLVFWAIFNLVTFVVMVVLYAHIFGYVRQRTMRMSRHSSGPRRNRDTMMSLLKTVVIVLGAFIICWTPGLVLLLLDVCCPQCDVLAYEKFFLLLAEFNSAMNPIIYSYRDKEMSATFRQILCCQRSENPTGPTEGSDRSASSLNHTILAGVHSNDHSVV

With `Cc1ccccc1[C@@H](C)OC(=O)Nc1c(C)nsc1-c1ccc(-c2ccc(C3(C(=O)O)CC3)cc2)cc1` [Compound 86], at Human LPA1 [1], the IC50 lay in the range of 50 to 500 nM. For the same compound, the 50% effective concentration (EC50) on Human LPA1 [2] is < 50 nM.
For `Cc1noc(-c2ccc3c(c2)CCc2cc(CC(=O)O)ccc2-3)c1NC(=O)O[C@H](C)c1ccccc1Cl` [Compound 78], in that order: 50 to 500 nM and 50 to 500 nM.
For `C[C@@H](OC(=O)Nc1scnc1-c1ccc(-c2ccc(C3(C(=O)O)CC3)cc2)cc1)c1ccccc1Cl` [Compound 107] the same measures were < 50 nM and < 50 nM.
With `C[C@@H](OC(=O)Nc1c(-c2cc(F)c(-c3ccc(C4(C(=O)O)CC4)cc3)cc2F)cnn1C)c1ccccc1` [Compound 200], at Human LPA1 [1], the IC50 was in the range of 50 to 500 nM. The concentration giving a half-maximal response (EC50) at Human LPA1 [2] was < 50 nM.
For `C[C@@H](OC(=O)Nc1c(-c2ccc(-c3ccc(C4(C(=O)O)CC4)cc3)cc2)oc2cc(F)ccc12)c1ccccc1Cl` [Compound 61] the same measures were > 500 nM and < 50 nM.
For `C[C@@H](OC(=O)Nc1ocnc1-c1ccc(-c2ccc(C3(C(=O)O)CC3)cc2)cc1)c1ccccc1Cl` [Compound 147], in that order: 50 to 500 nM and < 50 nM.
Take `Cc1nsc(-c2cc(Cl)c(-c3ccc(C4(C(=O)O)CC4)cc3)cc2F)c1NC(=O)O[C@H](C)c1ccccc1` [Compound 179]: the IC50 at Human LPA1 [1] lay in the range of 50 to 500 nM. The EC50 on Human LPA1 [2] is < 50 nM.
For `C[C@@H](OC(=O)Nc1c(-c2cc(Cl)c(-c3ccc(C4(C(=O)O)CC4)cc3)cc2F)cnn1C)c1ccccc1` [Compound 201], in that order: < 50 nM and < 50 nM.
For `Cc1nsc(-c2ccc(-c3ccc(C(C(=O)O)c4ccccc4)cc3)cc2)c1NC(=O)O[C@H](C)c1ccccc1Cl` (single isomer, unassigned) [Compound 70] the same measures were > 500 nM and < 50 nM.
For `Cc1nsc(C#Cc2ccc(C3(C(=O)O)CC3)cc2)c1NC(=O)O[C@H](C)c1ccccc1` [Compound 82], the IC50 on Human LPA1 [1] was > 500 nM. Further, the concentration giving a half-maximal response (EC50) on Human LPA1 [2] lay in the range of 50 to 500 nM.
For `Cc1nsc(-c2ccc(-c3ccc(C(C(=O)O)c4ccccc4)cc3)cc2)c1NC(=O)O[C@H](C)c1ccccc1Cl` (single isomer, unassigned) [Compound 71], in that order: > 500 nM and 50 to 500 nM.
For `Cc1nnn(-c2ccc(-c3ccc(C4(C(=O)O)CC4)cc3)cc2)c1NC(=O)O[C@H](C)c1ccccc1Cl` [Compound 64] the same measures were 50 to 500 nM and < 50 nM.
For `C[C@@H](OC(=O)Nc1ccn(-c2ccc(-c3ccc(C4(C(=O)O)CC4)cc3)cc2)n1)c1ccccc1Cl` [Compound 68], in that order: > 500 nM and > 500 nM.
For `Cc1snc(-c2ccc(-c3ccc(C4(C(=O)O)CC4)cc3)cc2)c1NC(=O)O[C@H](C)c1ccccc1` [Compound 105], the IC50 at Human LPA1 [1] is < 50 nM. The half-maximal effective concentration (EC50) at Human LPA1 [2] was < 50 nM.
As for `Cc1snc(-c2ccc(-c3ccc(C4(C(=O)O)CC4)cc3)cc2)c1NC(=O)O[C@H](C)c1ccccc1Cl` [Compound 56], at Human LPA1 [1], the half-inhibitory concentration (IC50) fell in the range of 50 to 500 nM. Further, the EC50 on Human LPA1 [2] was < 50 nM.
For `Cc1nsc(-c2ccc(-c3ccc(C4(C(=O)O)COC4)cc3)cc2)c1NC(=O)O[C@H](C)c1ccccc1` [Compound 241] the same measures were 50 to 500 nM and 50 to 500 nM.
For `C[C@@H](OC(=O)Nc1ccnn1-c1ccc(-c2ccc(C3(C(=O)O)CC3)cc2)cc1)c1ccccc1Cl` [Compound 67] the same measures were < 50 nM and < 50 nM.
For `Cc1nsc(-c2ccc(-c3ccc(C4(C(=O)O)CC4)cc3)cc2)c1NC(=O)O[C@H](C)c1ccccc1F` [Compound 83] the same measures were 50 to 500 nM and < 50 nM.
Consider `C[C@@H](OC(=O)Nc1c(-c2ccc(-c3ccc(C4(C(=O)O)CC4)cc3)cc2)oc2ccc(F)cc12)c1ccccc1Cl` [Compound 60], for which the concentration for half-maximal inhibition (IC50) on Human LPA1 [1] is > 500 nM. In addition, the EC50 on Human LPA1 [2] is 50 to 500 nM.
For `Cc1noc(-c2ccc(-c3ccc(C4CCOCC4C(=O)O)cc3)cc2)c1NC(=O)O[C@H](C)c1ccccc1Cl` (stereo partly shown) [Compound 79] the same measures were 50 to 500 nM and < 50 nM.
For `Cc1nsc(-c2ccc(-c3ccc(C4(C(=O)O)CC4)cc3)cc2)c1NC(=O)O[C@H](C)c1ccccc1` [Compound 44], in that order: < 50 nM and < 50 nM.
For the compound `Cc1nsc(-c2ccc(-c3ccc(C4(C(=O)O)CC4)cc3)cc2)c1NC(=O)OCc1ccccc1` [Compound 45], at Human LPA1 [1], the half-inhibitory concentration (IC50) was < 50 nM. Further, on Human LPA1 [2], the EC50 was < 50 nM.
As for `Cc1nsc(-c2ccc(-c3ccc(C4(C(=O)O)CC4)cc3)c(F)c2)c1NC(=O)O[C@H](C)c1ccccc1` [Compound 185], the half-inhibitory concentration (IC50) on Human LPA1 [1] was < 50 nM. For the same compound, the concentration giving a half-maximal response (EC50) at Human LPA1 [2] is < 50 nM.
With `Cc1nsc(C#Cc2ccc(C3(C(=O)O)CC3)cc2)c1NC(=O)O[C@H](C)c1ccccc1Cl` [Compound 81], the half-maximal inhibitory concentration (IC50) at Human LPA1 [1] is < 50 nM. Besides, on Human LPA1 [2], the concentration for a half-maximal effect (EC50) was < 50 nM.
As for `Cc1nsc(C#Cc2ccc3cc(CC(=O)O)ccc3c2)c1NC(=O)O[C@H](C)c1ccccc1` [Compound 90], at Human LPA1 [2], the EC50 lay within 50 to 500 nM.
Same read-out and setting: with `Cc1noc(-c2ccc(-c3ccc4c(c3)CCCC4C(=O)O)cc2)c1NC(=O)O[C@H](C)c1ccccc1Cl` (stereo partly shown) [Compound 21] the figure was 50 to 500 nM.
Still for that read-out and setting: with `Cc1noc(-c2ccc(-c3ccc(N4CCC[C@H](C(=O)O)C4)cc3)cc2)c1NC(=O)O[C@H](C)c1ccccc1` [Compound 137] the figure was 50 to 500 nM; with `Cc1nsc(-c2ccc(-c3ccc(C4(C(=O)O)CC4)cc3)cc2)c1NC(=O)OCc1ccc(Cl)cc1` [Compound 100], 50 to 500 nM; with `Cc1noc(-c2ccc(-c3ccc(N4CCC[C@H](C(=O)O)C4)cc3)cc2)c1NC(=O)O[C@H](C)c1ccccc1Cl` [Compound 139], 50 to 500 nM.
Same read-out and setting: with `Cc1nsc(-c2ccc3cc(C#CC4(C(=O)O)CC4)ccc3c2)c1NC(=O)OCc1ccccc1` [Compound 89] the figure was 50 to 500 nM; with `CCOC(=O)Cc1ccc(-c2ccc(-c3onc(C)c3NS(=O)(=O)Cc3ccccc3)cc2)cc1` [Compound 15], > 500 nM; with `Cc1noc(C#Cc2ccc3cc(C4(C(=O)O)CC4)ccc3c2)c1NC(=O)O[C@H](C)c1ccccc1` [Compound 130], < 50 nM.
`Cc1nsc(-c2ccc3c(c2)CCc2cc(C4(C(=O)O)CC4)ccc2-3)c1NC(=O)OCc1ccccc1` [Compound 246]: the 50% effective concentration (EC50) on Human LPA1 [2] was in the range of 50 to 500 nM.
The same measure, in the same setting: with `Cc1nsc(C#Cc2ccc3cc(C4(C(=O)O)CC4)ccc3c2)c1NC(=O)O[C@H](C)c1ccccc1` [Compound 92] the figure was < 50 nM; with `Cc1nc(-c2ccc(-c3ccc(C4(C(=O)O)CC4)cc3)cc2)c(NC(=O)O[C@H](C)c2ccccc2Cl)o1` [Compound 155], 50 to 500 nM; with `C[C@@H](OC(=O)Nc1ccn(-c2ccc(-c3ccc(C4(C(=O)O)CC4)cc3)cc2)n1)c1ccccc1` [Compound 163], > 500 nM.
On to `Cc1nsc(-c2cc(F)c(-c3ccc(C4(C(=O)O)CC4)cc3)cc2Cl)c1NC(=O)O[C@H](C)c1ccccc1Cl` [Compound 180], for which, on Human LPA1 [2], the EC50 was < 50 nM.
On the same count and under the same terms, with `Cc1noc(-c2ccc3cc(C#CC4(C(=O)O)CC4)ccc3c2)c1NC(=O)OCc1ccccc1` [Compound 142] the figure was < 50 nM.
The same measure, in the same setting: with `C[C@@H](OC(=O)Nc1snnc1-c1ccc(-c2ccc(C3(C(=O)O)CC3)cc2)cc1)c1ccccc1` [Compound 174] the figure was 50 to 500 nM.
Regarding `C[C@@H](OC(=O)Nc1c(-c2ccc(-c3ccc(C4(C(=O)O)CC4)cc3)c(F)c2)cnn1C)c1ccccc1` [Compound 203], the EC50 on Human LPA1 [2] is < 50 nM.
On the same count and under the same terms, with `Cc1nsc(-c2ccc(-c3ccc(C4(C(=O)O)CCOCC4)cc3)cc2)c1NC(=O)O[C@H](C)c1ccccc1` [Compound 243] the figure was 50 to 500 nM.
Regarding `Cc1nsc(-c2ccc(-c3ccc(CC(=O)O)cc3F)cc2)c1NC(=O)O[C@H](C)c1ccccc1Cl` [Compound 195], the concentration for a half-maximal effect (EC50) at Human LPA1 [2] lay within 50 to 500 nM.
Take `Cc1noc(C#Cc2ccc(C3(C(=O)O)CC3)cc2)c1NC(=O)O[C@H](C)c1ccccc1` [Compound 250]: on Human LPA1 [2], the EC50 was in the range of 50 to 500 nM.
Still for that read-out and setting: with `Cc1nsc(-c2ccc(-c3ccc(CC(=O)O)cc3Cl)cc2)c1NC(=O)O[C@H](C)c1ccccc1Cl` [Compound 190] the figure was 50 to 500 nM.
Same read-out and setting: with `Cc1ccccc1COC(=O)Nc1c(C)nsc1-c1ccc(-c2ccc(C3(C(=O)O)CC3)cc2)cc1` [Compound 85] the figure was 50 to 500 nM.
Still for that read-out and setting: with `Cc1noc(-c2ccc(-c3ccc4c(c3)CCCC4C(=O)O)cc2)c1NC(=O)O[C@H](C)c1ccccc1Cl` (stereo partly shown) [Compound 23] the figure was 50 to 500 nM.
